Structures can show the parent of a compound that is named as a salt. Where two headings read alike, the source gives them in different places.
Assays:
PDGFRβ [1] = molecular target: T1, PDGFRβ (Homo sapiens (Human), UniProt P09619); assay: PDGF-BB induced phosphorylation of PDGFRβ in fibroblasts (MRC5, HTRF); format: cell-based; settings: MRC5 cells, PDGFBB stimulation; read-out: PDGFBB-induced PDGFRβ phosphorylation in MRC5 cells (IC50)
PAMPA permeability assay = format: in vitro ADME; settings: pH 7, PAMPA; for Papp at 5 h, 10 µM: pH 7, 10 μM
[2] = Pharmacokinetic measurements in rats (i.v., i.t., oral); format: in vivo; settings: rat; for concentration at 0.1 h / concentration at 1.5 h / concentration at 6 h / concentration at 24 h: male, CD, lung; for concentration at 0.1 h: read-out: lung concentration (nM) at time 0.1 h; for concentration at 1.5 h: read-out: lung concentration (nM) at time 1.5 h; for concentration at 6 h: read-out: lung concentration (nM) at time 6 h; for concentration at 24 h: read-out: lung concentration (nM) at time 24 h
PDGFRβ [3] = molecular target: T1, PDGFRβ; assay: PDGFRβ enzyme inhibition (ADP-Glo assay); format: biochemical; settings: mean, n = 2 (nintedanib n = 34)
MRC5 cells = assay: Cell viability assay in MRC5 cells (MTT)
[4] = i.t. dose 0.1 (nintedanib 0.42)
[5] = i.v. dose 0.1 (nintedanib 0.42)

T1 sequence (P09619 33-1106): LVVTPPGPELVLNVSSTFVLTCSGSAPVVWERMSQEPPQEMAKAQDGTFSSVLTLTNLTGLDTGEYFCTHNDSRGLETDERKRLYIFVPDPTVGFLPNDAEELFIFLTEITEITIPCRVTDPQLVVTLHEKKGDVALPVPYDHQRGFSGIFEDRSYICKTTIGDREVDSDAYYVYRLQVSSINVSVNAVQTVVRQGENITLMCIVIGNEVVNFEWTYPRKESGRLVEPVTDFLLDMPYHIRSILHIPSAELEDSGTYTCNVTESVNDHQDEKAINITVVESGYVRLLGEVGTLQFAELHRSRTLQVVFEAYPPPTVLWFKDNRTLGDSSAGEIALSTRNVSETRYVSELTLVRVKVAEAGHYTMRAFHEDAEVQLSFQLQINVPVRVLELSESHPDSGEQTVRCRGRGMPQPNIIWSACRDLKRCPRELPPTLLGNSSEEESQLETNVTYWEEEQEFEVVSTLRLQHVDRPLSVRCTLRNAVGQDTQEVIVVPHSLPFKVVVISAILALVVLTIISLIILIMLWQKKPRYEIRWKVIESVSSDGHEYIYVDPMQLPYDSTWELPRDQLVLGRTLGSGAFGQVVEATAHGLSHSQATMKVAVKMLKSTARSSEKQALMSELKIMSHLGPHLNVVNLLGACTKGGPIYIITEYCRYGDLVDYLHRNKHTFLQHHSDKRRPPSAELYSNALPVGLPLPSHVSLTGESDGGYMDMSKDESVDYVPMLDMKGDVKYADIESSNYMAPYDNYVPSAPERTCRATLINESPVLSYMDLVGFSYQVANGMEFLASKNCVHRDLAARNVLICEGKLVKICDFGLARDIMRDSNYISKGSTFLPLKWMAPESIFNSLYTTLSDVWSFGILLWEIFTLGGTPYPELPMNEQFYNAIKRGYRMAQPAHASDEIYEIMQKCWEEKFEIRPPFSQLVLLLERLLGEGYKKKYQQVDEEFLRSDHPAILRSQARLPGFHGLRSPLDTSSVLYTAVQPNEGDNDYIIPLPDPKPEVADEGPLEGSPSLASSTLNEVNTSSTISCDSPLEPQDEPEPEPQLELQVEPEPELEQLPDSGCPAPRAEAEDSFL

SMILES | IC50 (PDGFRβ [1]) [nM] | recovery at 5 hr, 10 μM (PAMPA permeability assay) [%] | Papp at 5 h, 10 µM (PAMPA permeability assay) [×10⁻⁶ cm/s] | Ki (PDGFRβ [3]) [nM] | Cell viability at 100 nM (%) (MRC5 cells) | Cell viability at 300 nM (%) (MRC5 cells) | Cell viability at 1000 nM (%) (MRC5 cells) | other results
COC(=O)c1cc2c(cc1C)/C(=C(/Nc1ccc(C(=O)NCCN3CCN(C)CC3)cc1)c1ccccc1)C(=O)N2 [Example 4, (Z)-Methyl 5-methyl-3-(((4-((2-(4-methylpiperazin-1-yl)ethyl)carbamoyl)phenyl)amino)(phenyl)methylene)-2-oxoindoline-6-carboxylate] | 14 | 76 | 0.0216 | 11.6 | – | – | – | concentration at 0.1 h ([2]; iv): 959 nM; concentration at 1.5 h ([2]; iv): 641 nM; concentration at 6 h ([2]; iv): 156 nM; concentration at 24 h ([2]; iv): 88 nM; concentration at 0.1 h ([2]; other: intra-tracheal): 3490 nM; concentration at 1.5 h ([2]; other: intra-tracheal): 1210 nM; concentration at 6 h ([2]; other: intra-tracheal): 475 nM; concentration at 24 h ([2]; other: intra-tracheal): 370 nM; BAL % administered dose at time 0.1 h [2, 4]: 3.4%; BAL % administered dose at time 1.5 h [2, 4]: 0.4%; BAL % administered dose at time 6 h [2, 4]: 0.4%; BAL % administered dose at time 24 h [2, 4]: 0.3%; BAL % administered dose at time 0.1 h [2, 5]: 0.07%; BAL % administered dose at time 1.5 h [2, 5]: 0.04%; BAL % administered dose at time 6 h [2, 5]: BQL; BAL % administered dose at time 24 h [2, 5]: BQL
COC(=O)c1cc2c(cc1C)/C(=C(/Nc1ccc(C(=O)NCCC(=O)N3CCN(C)CC3)cc1)c1ccccc1)C(=O)N2 [Example 10, (Z)-Methyl 5-methyl-3-(((4-((3-(4-methylpiperazin-1-yl)-3-oxopropyl)carbamoyl)phenyl)amino) (phenyl)methylene)-2-oxoindoline-6-carboxylate] | 15.9 | 70.4 | 0.0428 | 12.7 | 85 | 118.9 | 108.4 | –
CNC(=O)CN1CCN(C(=O)c2ccc(N/C(=C3\C(=O)Nc4cc(C(=O)OC)c(C)cc43)c3ccccc3)cc2)CC1 [Example 11, (Z)-Methyl 5-methyl-3-(((4-(4-(2-(methylamino)-2-oxoethyl)piperazine-1-carbonyl)phenyl)amino) (phenyl)methylene)-2-oxoindoline-6-carboxylate] | 2.75 | 93.2 | 0.0479 | 10.6 | 82 | 67.8 | 28.5 | –
COC(=O)c1cc2c(cc1C)/C(=C(/Nc1ccc(C(=O)NC3CCN(CCO)CC3)cc1)c1ccccc1)C(=O)N2 [Example 13, (Z)-Methyl 3-(((4-((1-(2-hydroxyethyl)piperidin-4-yl)carbamoyl)phenyl)amino) (phenyl)methylene)-5-methyl-2-oxoindoline-6-carboxylate] | 1.25 | 76.3 | 0.0439 | 10.4 | 84.3 | 93.2 | 102.1 | –
COC(=O)c1cc2c(cc1C)/C(=C(/Nc1ccc(C(=O)N3CCN(C)CC3)cc1)c1ccccc1)C(=O)N2 [Example 17, (Z)-Methyl 5-methyl-3-(((4-(4-methylpiperazine-1-carbonyl)phenyl)amino)(phenyl)methylene)-2-oxoindoline-6-carboxylate] | 4.48 | 59.8 | 24.6 | 9.39 | 76.2 | 63.6 | 34.1 | –
COC(=O)c1cc2c(cc1C)/C(=C(/Nc1ccc(C(=O)N3CCN(CCO)CC3)cc1)c1ccccc1)C(=O)N2 [Example 19, (Z)-Methyl 3-(((4-(4-(2-hydroxyethyl)piperazine-1-carbonyl)phenyl)amino)(phenyl)methylene)-5-methyl-2-oxoindoline-6-carboxylate, 0.5 formate] | 5.04 | 61.8 | 0.589 | 8.79 | 85.5 | 71.8 | 21.9 | –
COCCN1CCC(NC(=O)c2ccc(N/C(=C3\C(=O)Nc4cc(C(=O)OC)c(C)cc43)c3ccccc3)cc2)CC1 [Example 20, (Z)-Methyl 3-(((4-((1-(2-methoxyethyl)piperidin-4-yl)carbamoyl)phenyl)amino)(phenyl)methylene)-5-methyl-2-oxoindoline-6-carboxylate] | 38.9 | 104 | 0.0165 | 19.1 | 92.6 | 91.7 | 87.2 | –
COC(=O)c1cc2c(cc1C)/C(=C(/Nc1ccc(C(=O)NCCCN3CCN(C)CC3)cc1)c1ccccc1)C(=O)N2 [Example 21, (Z)-Methyl-5-methyl-3-(((4-((3-(4-methylpiperazin-1-yl)propyl)carbamoyl)phenyl)amino)(phenyl)methylene)-2-oxoindoline-6-carboxylate, formate] | 35.1 | 76 | 0.0442 | 6.11 | 139.6 | 127.3 | 98.8 | –
COC(=O)c1cc2c(cc1C)/C(=C(/Nc1ccc(C(=O)NCCCN(C)C)cc1)c1ccccc1)C(=O)N2 [Example 22, (Z)-Methyl 3-(((4-((3-(dimethylamino)propyl)carbamoyl)phenyl)amino)(phenyl)methylene)-5-methyl-2-oxoindoline-6-carboxylate, 0.5 formate] | 12.3 | 101 | 0.046 | 9.29 | 72.3 | 58.8 | 48.8 | –
CNC(=O)CN(C)CCNC(=O)c1ccc(N/C(=C2\C(=O)Nc3cc(C(=O)OC)c(C)cc32)c2ccccc2)cc1 [Example 54, (Z)-Methyl 5-methyl-3-(((4-((2-(methyl(2-(methylamino)-2-oxoethyl)amino)ethyl)carbamoyl)phenyl)amino)(phenyl)methylene)-2-oxoindoline-6-carboxylate] | 5.04 | – | – | 15.8 | 110.2 | 105.5 | 92.4 | –
COC(=O)c1cc2c(cc1C)/C(=C(/Nc1ccc(C(=O)NCCN3CCNC(=O)C3)c(F)c1)c1ccccc1)C(=O)N2 [Example 55, (Z)-Methyl 3-(((3-fluoro-4-((2-(3-oxopiperazin-1-yl)ethyl)carbamoyl)phenyl)amino)(phenyl)methylene)-5-methyl-2-oxoindoline-6-carboxylate] | 9.13 | – | – | 25.1 | 79.4 | 101.5 | 101.7 | –
COC(=O)c1cc2c(cc1C)/C(=C(/Nc1ccc(C(=O)NCCN3CCCNC(=O)C3)cc1)c1ccccc1)C(=O)N2 [Example 56, (Z)-Methyl 5-methyl-2-oxo-3-(((4-((2-(3-oxo-1,4-diazepan-1-yl)ethyl)carbamoyl)phenyl)amino)(phenyl)methylene)indoline-6-carboxylate] | 9.16 | – | – | 12.6 | 100.0 | 104.9 | 102.0 | –
